# Assay results from patent US11154551B2, “HDAC1,2 inhibitors and methods of using the same” (UNIVERSITY OF UTAH RESEARCH FOUNDATION, priority 2014, dated 2021).
# Experiments:
# HDAC1 = target: T1, HDAC1 (Homo sapiens, UniProt Q13547); experiment: in vitro HDAC enzyme assay with recombinant enzyme; conditions: from biochemical IC50 values, recombinant enzymes
# T1 construct: purchased BPS Biosciences
# Description: (§1) Among class I HDACs, Hdac1,2 share a 50% sequence homology with Hdac3. Therefore, we first determined the selectivity of ACY-957 towards HDAC1 and HDAC2 in in vitro enzyme assays using recombinant enzymes.
# HDAC2 = target: T2, HDAC2 (Homo sapiens, UniProt Q92769); experiment: in vitro HDAC enzyme assay with recombinant enzyme; conditions: from biochemical IC50 values, recombinant enzymes
# T2 construct: purchased BPS Biosciences
# T2 sequence (Q92769 whole entry): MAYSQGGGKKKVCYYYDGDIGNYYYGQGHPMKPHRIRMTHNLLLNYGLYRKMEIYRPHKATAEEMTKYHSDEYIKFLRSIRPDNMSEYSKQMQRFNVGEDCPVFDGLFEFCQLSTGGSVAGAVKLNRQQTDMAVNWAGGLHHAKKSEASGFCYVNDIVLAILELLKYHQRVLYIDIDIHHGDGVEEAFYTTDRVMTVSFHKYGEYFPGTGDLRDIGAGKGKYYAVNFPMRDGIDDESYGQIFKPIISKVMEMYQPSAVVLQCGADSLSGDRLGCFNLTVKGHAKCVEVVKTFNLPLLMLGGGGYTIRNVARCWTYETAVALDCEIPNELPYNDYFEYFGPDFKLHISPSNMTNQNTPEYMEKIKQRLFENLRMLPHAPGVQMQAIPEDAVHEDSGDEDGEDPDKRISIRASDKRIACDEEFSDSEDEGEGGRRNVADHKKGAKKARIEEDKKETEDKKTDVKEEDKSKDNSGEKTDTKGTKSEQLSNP
# Description: as §1
# Hdac1,2 = experiment: in vitro enzyme assays, IC50 determination (FIG. 17A); assay type: biochemical
# Description: (§2) (A). For IC50 determination, recombinant HDAC enzymes were treated with HDAC1,2 or HDAC3 inhibitors in in vitro HDAC assays. (B). Western blots for H3K23ac using extracts from Pre-B-ALL SupB15 cells treated with increasing dose of HDAC1,2 inhibitor (ACY1035). (C). Hdac1^FI/FI, 2^FI/FI cells were infected with Ad-Cre virus to delete HDAC1 and HDAC2 (HDAC1,2 null) or uninfected (WT). (D). Hdac3^FI/FI cells were either uninfected (WT) or infected with Ad-Cre virus to delete Hdac3. HDAC3-null cells were treated with DMSO or the HDAC1,2 selective inhibitor.
# We have determined 2 μM (FIG. 17B) as the minimum dose for the ACY compounds, respectively, that when added to cells increased H3K23ac (a mark targeted by Hdac1,2 but not Hdac3).
# [1] = tested on: Karpas-422 and SUDHL4 cells; experiment: Western blot of chromatin extracts for H3K27ac and H3K27me3; assay type: cell-based, human
# Description: Western blot analysis was done with anti-H3K27ac, H3K27me3 or EZH2 and histone H3 served as a loading control.
# Following DMSO or ACY-957 treatment, cells were exposed to a 5Gy dose of ionizing radiation and allowed to recover for 30 minutes prior to chromatin extraction. Western blots were performed with anti-H3K27ac or anti-H3K27me3 with histone H3 serving as a loading control. (B-E): Karpas-422, SUDHL4, WSU-DLCL2 and HeLa cells were laser micro-irradiated and allowed to recover for 15 minutes before fixation and immunofluorescence staining with anti-γH2AX and anti-H3K27me3. Subsequently, the percentage of cells with H3K27me3 lines that co-localized with γH2AX were counted. Merge is the overlay of γH2AX and H3K27me3 pictures. (F-I): At least 100 cells with γH2AX lines were counted in each experiment. The quantitation shown was the average calculated from independent experiments+/−standard error. Quantitation from five, seven, five and six independent experiments performed in Karpas-422, SUDHL4, WSU-DLCL2 and HeLa cells, respectively, was used in the graph shown in this figure. (J): Karpas-422 cells were micro-irradiated with a laser and allowed to recover for 15 minutes before fixation and immunofluorescence staining was performed with anti-γH2AX and anti-H3K27ac.
# Protein Preparation and Western Blot Analysis.
# The histone H3K27 residue was subjected to reversible acetylation and methylation. […] We also treated cells with the second EZH2 inhibitor, GSK126 alone, or combined with ACY-957 (ACY-957+GSK126). […] Cells were treated for 48 h prior to preparing chromatin extracts for Western analysis using antibodies recognizing H3K27ac or H3K27me3.
# We first examined whether inhibiting HDAC1,2 activity induced any change in global H3K27ac or H3K27me3 on chromatin following DNA damage and during DNA repair. SUDHL4 or Karpas-422 cells with or without exposure to ionizing radiation (IR) were initially treated with DMSO or ACY-957 for 48 hr. Chromatin extracts were prepared from these cells following a 30 min recovery period (the repair phase) and changes in histone modifications were examined by Western blotting.
# [2] = tested on: Karpas-422 and SUDHL4 cells; experiment: Western blot of acid-extracted histones (H4K91ac, H4K16ac, monoubiquitinated H4); assay type: cell-based, human; conditions: for monoubiquitinated form of H4 after doxorubicin: 48 h pretreatment, then 50 nM doxorubicin 4 h or 8 h
# Description: Western analysis was performed with anti-BBAP antibody and histone H3 was used as a loading control. Whole cell lysate of HeLa cells was prepared following transfection of cells with either non-targeting or two different BBAP siRNAs. These extracts served as negative controls for the signal from BBAP antibody. (B): SUDHL4 and Karpas-422 cells were treated with DMSO or 2 μM ACY-957 for 48 hr prior to chromatin extraction. Western analysis was done using anti-H4K91ac or anti-H4K16ac and histone H4 served as a loading control. (C): HeLa cells were transfected with either wild type H4 or H4K91R mutant constructs for 65 hours prior to extraction of histones by trichloroacetic acid. Western blot analysis was performed with anti-FLAG antibody. (D): SUDHL4 cells and Karpas-422 were treated with DMSO or 2 μM ACY-957 for 24 hours and histones were extracted by TCA precipitation. Western blotting with anti-H4 was performed to detect H4 and monoubiquitylated H4. (E): SUDHL4 cells and Karpas-422 were treated with DMSO or 2 μM ACY-957 for 48 hours and treated with 50 nM doxorubicin for 4 hr or 8 hr prior to histone extraction. Histones were extracted by TCA precipitation and western blotting with anti-H4 was performed to detect H4 and monoubiquitinated H4.
# Histone Extraction by Trichloroacetic Acid. DLBCL cells were treated with ACY957 in 25 cm^2 flasks. Following treatment, cells were pelleted, washed with PBS and the pellet was re-suspended in 400 μl of lysis buffer with protease inhibitors (200 μl 0.5M HEPES.KOH, pH 7.9, 15 μl 1M MgCl2, 50 μl 2M KCl, 50 μl 0.1M DTT, 100 μl 0.4M NEM, 10 μl 1000× Aprotinin/Leupeptin, 10 μl 1000× Pepstatin A, and water to a total volume of 10 m L plus Roche protease inhibitor cocktail). To the cell suspension, a final concentration of 0.2M sulfuric acid was added and samples were sonicated twice using the Fisher FB120 sonicator at amplitude of 50% and with 5 pulses. After sonication, proteins were extracted for 30 minutes at 4° C. with end over end rotation. Samples were then centrifuged at 13,000 rpm for 10 minutes at 4° C. and histones were precipitated with a 20% final concentration of trichloroacetic acid and incubated on ice for 30 minutes or moved directly to −80° C. overnight. Following precipitation, samples were centrifuged again for 10 minutes and the resulting pellet was washed with cold acidified acetone (acetone+0.05N HCl). The histone pellets were centrifuged at the same settings but for 5 minutes then washed again with cold acetone. After this wash the pellets were centrifuged for another 5 minutes and the acetone was discarded. Pellets were dried in an incubator at 37° C. for 5 minutes then re-suspended in 50 μl 2×SDS sample buffer+β-mercaptoethanol and 8 μl 1M Tris HCl pH 8 to neutralize. The samples were then boiled for 8 minutes at 95° C. and if there was still visible pellet they were either boiled longer, sonicated, had more sample buffer added or a combination thereof.
# We treated Karpas-422 or SUDHL4 cells with DMSO or ACY-957 for 48 h prior to the incubation for 4 h or 8 h in the presence of doxorubicin.
# [3] = tested on: Hdac1,2 or Hdac3 knockout cell lines; experiment: Western blot of H4K5ac in conditional Hdac1,2 or Hdac3 knockout cells; assay type: cell-based, mouse
# Description: as §2, with “For” for “(A). For”, “Hdac3.” for “Hdac3. HDAC3-null cells were treated with DMSO or the HDAC1,2 selective inhibitor.”
# [4] = tested on: non-transformed, mouse bone marrow Pro-B derived Baf3 cells or cord blood stem cells; experiment: cell death in non-transformed cells; assay type: cell-based; conditions: 2 μM, within 72 hr
# Description: Therefore, transformed lymphoma cells are more sensitive to HDAC1,2 inhibition when compared to the untransformed normal B-cells. HDAC1,2 inhibitor causes replication fork collapse in S-phase to trigger DNA damage response, and transformed cancer cells have increased DNA replication when compared to normal B cells. […] In addition to this property, EZH2^GOF DLBCL cells also have increased DNA repair compared to EZH2^WT DLBCL cells (FIG. 34A), which can also be targeted by HDAC1,2 inhibitor as it impairs the HDAC1,2 regulated DNA repair processes used by EZH2^GOF DLBCL cells for their survival.
# [5] = tested on: glioma cell lines U-87 and U-251; experiment: propidium iodide FACS cell cycle analysis; assay type: cell-based; conditions: 2 μM, 72 hours
# Description: Cells were treated with ACY957 or DMSO for 72 hours, stained with propidium iodide, and assessed by FACS. The percentage of cells in Sub-G1, G1, S, and G2-M phases were quantified for each sample.
# Glioma is a type of primary brain tumor that originates in the glial cells present in the brain or spinal cord. The glioma cell lines U-87 and U-251 were treated with either DMSO or 2 μM ACY957 for 72 hours and then subjected to propidium iodide staining and FACS analysis to evaluate cell cycle progression.
# [6] = tested on: Karpas-422 and SUDHL4 cells; experiment: Western blot of histone acetylation marks in whole cell lysates; conditions: vs DMSO
# Description: Compounds were diluted in DMSO to 50 fold the final concentration and a ten point three fold dilution series was made. The compounds were diluted in assay buffer (50 mM HEPES, pH 7.4, 100 mM KCl, 0.001% Tween-20, 0.05% BSA, 20 μM tris(2-carboxyethyl)phosphine) to 6 fold their final concentration. The HDAC enzymes (purchased from BPS Biosciences) were diluted to 1.5 fold their final concentration in assay buffer. The tripeptide substrate (synthesized in house) and trypsin at 0.05 μM final concentration were diluted in assay buffer at 6 fold their final concentration. Five μl compounds and 20 μl of enzyme were added to wells of a black, opaque 384 well plate in duplicate. Enzyme and compound were incubated together at room temperature for 10 minutes. Five μl of substrate was added to each well, the plate was shaken for 60 seconds and placed into a Victor 2 microtiter plate reader. The development of fluorescence was monitored for 60 min and the linear rate of the reaction was calculated. The IC50 was determined using Graph Pad Prism by a four parameter curve fit.
# T1 sequence (Q13547 whole entry): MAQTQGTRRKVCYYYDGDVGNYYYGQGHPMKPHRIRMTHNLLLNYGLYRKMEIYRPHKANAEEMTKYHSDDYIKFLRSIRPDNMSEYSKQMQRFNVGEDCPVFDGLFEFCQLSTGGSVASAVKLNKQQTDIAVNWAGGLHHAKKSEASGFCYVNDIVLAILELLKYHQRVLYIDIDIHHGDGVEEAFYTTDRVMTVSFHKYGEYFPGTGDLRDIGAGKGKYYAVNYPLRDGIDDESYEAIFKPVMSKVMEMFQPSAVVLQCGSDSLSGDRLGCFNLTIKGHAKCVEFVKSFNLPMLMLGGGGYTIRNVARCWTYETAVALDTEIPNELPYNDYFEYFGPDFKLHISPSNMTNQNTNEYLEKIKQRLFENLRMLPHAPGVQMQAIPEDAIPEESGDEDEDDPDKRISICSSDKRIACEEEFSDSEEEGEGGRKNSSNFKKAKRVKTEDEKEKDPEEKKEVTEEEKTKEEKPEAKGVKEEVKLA
smiles,measurement,setting,value
"Nc1ccc(-c2cccs2)cc1NC(=O)c1ccc2nc(N3CCNCC3)ccc2c1 [ACY-957, N-(2-amino-5-(thiophen-2-yl)phenyl)-2-(piperazin-1-yl)quinoline-6-carboxamide]",selectivity for HDAC1 when compared to HDAC3,HDAC1,185 fold
same,selectivity for HDAC2 when compared to HDAC3,HDAC2,72 fold
same,"inhibition of Hdac1,2 activities compared to Hdac3 (IC50 values)","Hdac1,2",very selectively
same,global H3K27ac levels,"[1]; 48 h, chromatin extracts",robust increase in global H3K27ac levels
same,global H3K27me3 levels,"[1]; 48 h, chromatin extracts",remained unchanged
same,global H3K27me3 levels on chromatin,"[1]; 48 hr, 30 min recovery from IR",concomitant decrease in global H3K27me3 levels on chromatin was not observed
same,global H3K27ac levels on chromatin,"[1]; 48 hr, with or without exposure to IR",increased
same,global H4K16ac levels,"[2]; 2 μM, 48 hr",increased global levels of H4K16ac
same,global H4K91ac levels,"[2]; 2 μM, 48 hr",increased global H4K91ac levels
same,global monoubiquitinated form of H4,"[2]; 30 h or 48 h, without doxorubicin",no change in global levels of the slow migrating monoubiquitinated form of H4
same,monoubiquitinated form of H4 after doxorubicin,[2],significant reduction to complete absence of the slow migrating monoubiquitinated form of H4
same,monoubiquitinated form of H4 after doxorubicin,[2]; listed as ACY957,decrease in the BBAP-mediated H4K91 monoubiquitination
same,H4K5ac in Hdac3-null cells,[3],additive increase in H4K5ac
same,cell death,[4],did not cause any cell death
same,effect on the cell cycle,[5],No effect on the cell cycle
same,H3K23ac levels,"[6]; 2 μM, 24 hours",increased H3K23ac levels
same,"H3K9,K14ac and H4K5ac levels","[6]; increasing amounts, 24 hr",concentration-dependent increase
